Where a name gives a salt, the structure may show the parent alone.
Tests used:
[1] = tested on: medulloblastoma cell lines; parameters: method as in PMID 19887560, PMID 26269112; conditions: cited from earlier work
telomerase = tested on: telomerase; parameters: method as in PMID 26307677; conditions: cited from earlier work
[2] = tested on: Rhabdomyosarcoma cell lines; parameters: method as in PMID 19887560, PMID 26269112; conditions: cited from earlier work
[3] = cited from earlier work
[4] = tested on: recurrent or refractory pediatric CNS and solid tumors; assay: Tumor response assessment (RECIST; INRC for neuroblastoma); assay type: in vivo, human; parameters: key to Best Response: no response per INRC; PD: progressive disease per RECIST or INRC; SD: stable disease per RECIST; conditions: for Subjects with stable disease as best response: stable disease for 2 months
Description: Tumor assessments were performed approximately every 8 weeks. For subjects with tumors other than neuroblastoma, responses were assessed by the study radiologist and principal investigator (SH, ID) via the Response Evaluation Criteria in Solid Tumors (RECIST). For subjects with neuroblastoma, responses were assessed by a single investigator (BK) using the International Neuroblastoma Response Criteria (INRC).

For `CCCCCCCCCCCCCCCCCCOP(=O)([O-])OC1CC[N+](C)(C)CC1` [perifosine, 1,1-Dimethyl-4-[[(octadecyloxy)hydroxyphosphinyl]oxy]-piperidinium inner salt], the IC50 [1] is given as 25 µM, the “Doses inhibiting telomerase activity” value (telomerase) is given as “low micromolar” and the IC50 [2] is given as about 10 µM. For the same compound, the “Dose at which dose exposure plateau was reached” value ([3]; 2 adult studies) was “higher than 100 mg/m^2/day”, the Plasma half-life [3] was “approximately 4 days” and the Objective responses ([4]; 23 patients, all dose levels) was “No objective responses”. The “Best Response” value ([4]; Patient 1, dose level 1, medulloblastoma) was “PD”, the “Best Response” value ([4]; Patient 2, dose level 1, medulloblastoma) was “PD” and the “Best Response” value ([4]; Patient 3, dose level 1, neuroblastoma) was “NR”. For the same compound, the “Duration of Best Response” value ([4]; Patient 3, dose level 1, neuroblastoma, NR) was 11 months, the “Best Response” value ([4]; Patient 4, dose level 2, glioblastoma) was “PD” and the “Best Response” value ([4]; Patient 5, dose level 2, neuroblastoma) was “NR”. The “Duration of Best Response” value ([4]; Patient 5, dose level 2, neuroblastoma, NR) was 63 months, the “Best Response” value ([4]; Patient 6, dose level 2, anaplastic astrocytoma) was “SD” and the “Duration of Best Response” value ([4]; Patient 6, dose level 2, anaplastic astrocytoma, SD) was 2 months. The “Best Response” value ([4]; Patient 7, dose level 3, glioblastoma) was “SD”, the “Duration of Best Response” value ([4]; Patient 7, dose level 3, glioblastoma, SD) was 2 months and the “Best Response” value ([4]; Patient 8, dose level 3, anaplastic astrocytoma) was “SD”. The “Duration of Best Response” value ([4]; Patient 8, dose level 3, anaplastic astrocytoma, SD) was 2 months, the “Best Response” value ([4]; Patient 9, dose level 3, anaplastic astrocytoma) was “SD” and the “Duration of Best Response” value ([4]; Patient 9, dose level 3, anaplastic astrocytoma, SD) was 2 months. The “Best Response” value ([4]; Patient 10, dose level 3, ependymoma) was “PD”, the “Best Response” value ([4]; Patient 11, dose level 3, neuroblastoma) was “NR” and the “Duration of Best Response” value ([4]; Patient 11, dose level 3, neuroblastoma, NR) was 2 months. For the same compound, the “Best Response” value ([4]; Patient 12, dose level 4, neuroblastoma) was “PD”, the “Best Response” value ([4]; Patient 13, dose level 4, Ewing sarcoma/PNET) was “PD” and the “Best Response” value ([4]; Patient 14, dose level 4, neuroblastoma) was “NR”. The “Duration of Best Response” value ([4]; Patient 14, dose level 4, neuroblastoma, NR) was 4 months, the “Best Response” value ([4]; Patient 15, dose level 4, neuroblastoma) was “NR” and the “Duration of Best Response” value ([4]; Patient 15, dose level 4, neuroblastoma, NR) was 42 months. The “Best Response” value ([4]; Patient 16, dose level 4, neuroblastoma) was “PD”, the “Best Response” value ([4]; Patient 17, dose level 4, DIPG) was “PD” and the “Best Response” value ([4]; Patient 18, dose level 5, Wilms tumor) was “PD”. For the same compound, the “Best Response” value ([4]; Patient 19, dose level 5, DIPG) was “PD”, the “Best Response” value ([4]; Patient 20, dose level 5, DIPG) was “SD” and the “Duration of Best Response” value ([4]; Patient 20, dose level 5, DIPG, SD) was 2 months. For the same compound, the “Best Response” value ([4]; Patient 21, dose level 5, ependymoma) was “PD”, the “Best Response” value ([4]; Patient 22, dose level 5, ependymoma) was “PD” and the “Best Response” value ([4]; Patient 23, dose level 5, neuroblastoma) was “PD”. For the same compound, the “Subjects with disease stability (no response per INRC)” value ([4]; neuroblastoma, for 2, 4, 11, 42 and 63 months) was “Five of 8”, the “Subjects with stable disease as best response” value ([4]; recurrent high-grade astrocytoma) was 4 of 5 and the “Duration of prolonged stable disease” value ([4]; three subjects with neuroblastoma) was at least 11 months. The “Subjects with stable disease as best response” value ([4]; three subjects with recurrent DIPG) was 1.

Source: paper PMC5459446, “A phase I study of single-agent perifosine for recurrent or refractory pediatric CNS and solid tumors” (PLoS ONE, 2017)
